Results published in patent US20250186408A1, “TREATMENT OF PHARMACORESISTANT EPILEPSY” (Katholieke Universiteit Leuven, priority 2021, published 2025).
Where two headings read alike, the source gives them in different places.

Columns and labels:
CAV1.2 = CAV1.2 (Homo sapiens, UniProt Q13936); assay: Ion Channel CAV1.2 Blocker; assay type: cell-based
AVPR1A = AVPR1A (Homo sapiens, UniProt P37288); assay: Calcium Flux AVPR1A Antagonist; assay type: cell-based; details: for IC50: read-out: RC50, result type IC50; for Emax: read-out: Max response
Chain of AVPR1A (P37288 whole entry): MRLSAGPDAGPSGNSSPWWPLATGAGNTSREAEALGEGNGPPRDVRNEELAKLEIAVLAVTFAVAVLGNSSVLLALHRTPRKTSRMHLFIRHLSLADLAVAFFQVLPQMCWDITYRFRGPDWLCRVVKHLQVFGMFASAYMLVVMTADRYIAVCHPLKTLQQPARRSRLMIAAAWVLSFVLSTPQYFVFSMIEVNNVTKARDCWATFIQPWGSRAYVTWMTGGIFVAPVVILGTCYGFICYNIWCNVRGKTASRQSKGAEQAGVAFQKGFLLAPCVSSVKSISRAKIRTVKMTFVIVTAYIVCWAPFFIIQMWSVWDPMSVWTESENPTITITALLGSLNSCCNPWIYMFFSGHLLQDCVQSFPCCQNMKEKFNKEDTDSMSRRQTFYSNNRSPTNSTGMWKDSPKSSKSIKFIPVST
Method: (§1) (≤0.2% DMSO concentration). Assays were performed in 1× dye loading buffer consisting of 1× Dye (DiscoverX, Calcium No Wash^PLUS kit, Catalog No. 90-0091), 1× Additive A and 2.5 mM Probenecid in HBSS/20 mM HEPES. Probenecid was prepared fresh. Prior to testing, media was aspirated from cells and replaced with 25 μL dye loading buffer. Cells were incubated for 45 min at 37° C. and then 20 min at RT. For agonist determination, 25 μL of 2× compound in HBSS/20 mM HEPES was added using a FLIPR Tetra (MDS). […] 25 μL of 2× sample was added and cells were incubated for 30 min at RT in the dark to equilibrate plate temperature. After incubation, antagonist determination was initiated by addition of 25 μL of 1× compound with 3×EC80 agonist using FLIPR. For both agonist and antagonist formats, activity was measure on a FLIPR Tetra (MDS). Calcium mobilization was monitored for 2 min with a 5 sec baseline read.
(§2) FLIPR read—Area under the curve, was calculated for the entire 2 min read.

EDNRA = target: T1, EDNRA (Homo sapiens, UniProt P25101); assay: Calcium Flux EDNRA Agonist; assay type: cell-based; details: for EC50: read-out: RC50, result type EC50; for Emax: read-out: Max response
T1 sequence (P25101 21-427): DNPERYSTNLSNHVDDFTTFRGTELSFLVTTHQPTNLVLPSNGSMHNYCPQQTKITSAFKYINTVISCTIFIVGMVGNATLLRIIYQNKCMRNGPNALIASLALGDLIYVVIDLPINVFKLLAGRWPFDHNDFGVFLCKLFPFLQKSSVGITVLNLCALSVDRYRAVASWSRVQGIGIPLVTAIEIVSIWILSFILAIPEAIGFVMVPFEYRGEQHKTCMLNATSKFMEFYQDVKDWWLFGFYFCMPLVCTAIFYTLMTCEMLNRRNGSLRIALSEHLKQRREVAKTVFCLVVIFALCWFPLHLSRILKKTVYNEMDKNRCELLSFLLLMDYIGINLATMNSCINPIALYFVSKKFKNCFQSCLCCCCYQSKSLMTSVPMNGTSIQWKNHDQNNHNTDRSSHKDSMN
Method: as §1, §2

nAChR (a4/b2) = nAChR (a4/b2) (Homo sapiens, UniProt P17787+P43681); assay: Ion Channel nAChR (a4/b2) Opener; assay type: cell-based; details: for Emax: Ion Channel nAChR (a4/b2) Opener, read-out: Max response
[1] = tested on: EKP-induced epileptiform discharges in zebrafish larvae; assay: Zebrafish EKP seizure model, electrophysiology (non-invasive LFP recordings, PSD analysis); assay type: in vivo, zebrafish (Danio rerio); details: 7 dpf larvae; for effect on EKP-induced elevated PSD (in words): 22 h; for efficacy against EKP-induced epileptiform discharges 2 μM / efficacy against EKP-induced epileptiform discharges 10 μM: 22 h incubation, mean, normalized PSD 20-90 Hz
Method: Non-invasive LFP recordings were measured from the midbrain (optic tectum) of 7 dpf zebrafish larvae pre-incubated with VHC only, EKP only, or compound and EKP. […] These steps occurred at 28° C., while further manipulation and electrophysiological recordings occurred at room temperature (±21° C.) and were performed as described before (16, 27). Each recording lasted 600 seconds.
A power spectral density (PSD) analysis of the recordings was performed using MatLab R2019 software (MATrix LABoratory, USA) as described in (26). The PSD estimate of each LFP recording was summed over each 10 Hz frequency band, ranging from 0 to 160 Hz. Next, the PSD estimates were normalized against the VHC control. Data are expressed as mean±SEM PSD per larva and per condition over the 20-90 Hz region. Outliers were identified via the ROUT test (Q=1%).
PSD analysis assumes that the epileptiform activity manifests as a high-power oscillation at certain frequencies (26). Thus, if epileptic activity occurs often during the recording an elevated PSD estimate should be found at the corresponding frequency band(s) (26).

CHRM1 = target: T2, CHRM1 (Homo sapiens, UniProt P11229); assay: Calcium Flux CHRM1 Antagonist; details: for Emax: read-out: Max response
T2 sequence (P11229 1-460): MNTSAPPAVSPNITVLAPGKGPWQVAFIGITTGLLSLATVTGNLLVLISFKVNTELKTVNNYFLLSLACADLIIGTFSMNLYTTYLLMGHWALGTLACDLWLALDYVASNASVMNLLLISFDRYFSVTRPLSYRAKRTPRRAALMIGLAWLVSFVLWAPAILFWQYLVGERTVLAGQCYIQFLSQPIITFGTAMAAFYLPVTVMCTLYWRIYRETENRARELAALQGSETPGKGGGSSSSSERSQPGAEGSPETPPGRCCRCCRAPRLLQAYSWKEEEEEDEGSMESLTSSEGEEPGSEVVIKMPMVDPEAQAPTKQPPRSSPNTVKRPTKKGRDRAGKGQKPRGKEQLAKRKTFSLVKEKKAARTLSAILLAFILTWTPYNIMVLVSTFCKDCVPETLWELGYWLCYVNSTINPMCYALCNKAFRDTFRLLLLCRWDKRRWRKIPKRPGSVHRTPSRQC
Method: In vitro pharmacological profiling of compounds was done against 78 functional assays for 47 common off-targets (30) by Eurofins DiscoverX Corporation (Fremont, CA, USA) using their SAFETYscan E/IC50 ELECT service (Cat Ref 87-1003DR, Safety47 Panel Dose Response). […] Compounds were tested in a range of 10 concentrations, following a 3-fold serial dilution, starting from 10 μM. The assays were performed utilizing the PathHunter enzyme fragment complementation (EFC) technology, FLIPR®-based cellular screening assays, and KINOMEscan kinase binding assays.
Prior to testing, cells (10,000 cells/well) were expanded from freezer stocks and seeded into a total volume of 50 μL into black walled, clear-bottom, Poly-D-lysine coated 384-well microplates and incubated at 37° C. […] Assays were performed in 1× dye loading buffer consisting of 1× Dye (DiscoverX, Calcium No Wash^PLUS kit, Catalog No. 90-0091), 1× Additive A and 2.5 mM Probenecid in HBSS/20 mM HEPES. Probenecid was prepared fresh. Prior to testing, media was aspirated from cells and replaced with 25 μL dye loading buffer. Cells were incubated for 45 min at 37° C. and then 20 min at RT. For agonist determination, 25 μL of 2× compound in HBSS/20 mM HEPES was added using a FLIPR Tetra (MDS). For antagonist determination, cells were pre-incubated with sample followed by agonist challenge at the EC80 concentration. 25 μL of 2× sample was added and cells were incubated for 30 min at RT in the dark to equilibrate plate temperature. After incubation, antagonist determination was initiated by addition of 25 μL of 1× compound with 3×EC80 agonist using FLIPR. For both agonist and antagonist formats, activity was measure on a FLIPR Tetra (MDS). Calcium mobilization was monitored for 2 min with a 5 sec baseline read.
FLIPR read—Area under the curve, was calculated for the entire 2 min read. Compound activity was analysed using CBIS data analysis suite (ChemInnovation, CA).

CCKAR = target: T3, CCKAR (Homo sapiens, UniProt P32238); assay: Calcium Flux CCKAR Agonist; assay type: cell-based; details: for EC50: read-out: RC50, result type EC50; for Emax: read-out: Max response
T3 sequence (P32238 1-428): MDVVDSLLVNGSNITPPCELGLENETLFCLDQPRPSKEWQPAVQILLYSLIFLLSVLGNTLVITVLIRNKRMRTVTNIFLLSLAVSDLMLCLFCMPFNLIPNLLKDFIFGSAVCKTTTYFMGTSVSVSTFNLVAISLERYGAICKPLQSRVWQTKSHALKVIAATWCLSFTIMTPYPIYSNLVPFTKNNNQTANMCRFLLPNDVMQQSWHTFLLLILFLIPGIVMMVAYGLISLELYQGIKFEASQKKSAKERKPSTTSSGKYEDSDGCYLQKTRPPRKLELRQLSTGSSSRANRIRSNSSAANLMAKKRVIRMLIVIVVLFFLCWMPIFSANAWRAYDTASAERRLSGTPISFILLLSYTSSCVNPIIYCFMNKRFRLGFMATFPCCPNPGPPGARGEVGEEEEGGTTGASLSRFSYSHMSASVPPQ
Method: as §1, §2

KvLQT1/minK = KvLQT1/minK (Homo sapiens, UniProt P51787); assay: Ion Channel KvLQT1/minK Blocker; assay type: cell-based; details: for Emax: read-out: Max response

Chain of CAV1.2 (Q13936 whole entry): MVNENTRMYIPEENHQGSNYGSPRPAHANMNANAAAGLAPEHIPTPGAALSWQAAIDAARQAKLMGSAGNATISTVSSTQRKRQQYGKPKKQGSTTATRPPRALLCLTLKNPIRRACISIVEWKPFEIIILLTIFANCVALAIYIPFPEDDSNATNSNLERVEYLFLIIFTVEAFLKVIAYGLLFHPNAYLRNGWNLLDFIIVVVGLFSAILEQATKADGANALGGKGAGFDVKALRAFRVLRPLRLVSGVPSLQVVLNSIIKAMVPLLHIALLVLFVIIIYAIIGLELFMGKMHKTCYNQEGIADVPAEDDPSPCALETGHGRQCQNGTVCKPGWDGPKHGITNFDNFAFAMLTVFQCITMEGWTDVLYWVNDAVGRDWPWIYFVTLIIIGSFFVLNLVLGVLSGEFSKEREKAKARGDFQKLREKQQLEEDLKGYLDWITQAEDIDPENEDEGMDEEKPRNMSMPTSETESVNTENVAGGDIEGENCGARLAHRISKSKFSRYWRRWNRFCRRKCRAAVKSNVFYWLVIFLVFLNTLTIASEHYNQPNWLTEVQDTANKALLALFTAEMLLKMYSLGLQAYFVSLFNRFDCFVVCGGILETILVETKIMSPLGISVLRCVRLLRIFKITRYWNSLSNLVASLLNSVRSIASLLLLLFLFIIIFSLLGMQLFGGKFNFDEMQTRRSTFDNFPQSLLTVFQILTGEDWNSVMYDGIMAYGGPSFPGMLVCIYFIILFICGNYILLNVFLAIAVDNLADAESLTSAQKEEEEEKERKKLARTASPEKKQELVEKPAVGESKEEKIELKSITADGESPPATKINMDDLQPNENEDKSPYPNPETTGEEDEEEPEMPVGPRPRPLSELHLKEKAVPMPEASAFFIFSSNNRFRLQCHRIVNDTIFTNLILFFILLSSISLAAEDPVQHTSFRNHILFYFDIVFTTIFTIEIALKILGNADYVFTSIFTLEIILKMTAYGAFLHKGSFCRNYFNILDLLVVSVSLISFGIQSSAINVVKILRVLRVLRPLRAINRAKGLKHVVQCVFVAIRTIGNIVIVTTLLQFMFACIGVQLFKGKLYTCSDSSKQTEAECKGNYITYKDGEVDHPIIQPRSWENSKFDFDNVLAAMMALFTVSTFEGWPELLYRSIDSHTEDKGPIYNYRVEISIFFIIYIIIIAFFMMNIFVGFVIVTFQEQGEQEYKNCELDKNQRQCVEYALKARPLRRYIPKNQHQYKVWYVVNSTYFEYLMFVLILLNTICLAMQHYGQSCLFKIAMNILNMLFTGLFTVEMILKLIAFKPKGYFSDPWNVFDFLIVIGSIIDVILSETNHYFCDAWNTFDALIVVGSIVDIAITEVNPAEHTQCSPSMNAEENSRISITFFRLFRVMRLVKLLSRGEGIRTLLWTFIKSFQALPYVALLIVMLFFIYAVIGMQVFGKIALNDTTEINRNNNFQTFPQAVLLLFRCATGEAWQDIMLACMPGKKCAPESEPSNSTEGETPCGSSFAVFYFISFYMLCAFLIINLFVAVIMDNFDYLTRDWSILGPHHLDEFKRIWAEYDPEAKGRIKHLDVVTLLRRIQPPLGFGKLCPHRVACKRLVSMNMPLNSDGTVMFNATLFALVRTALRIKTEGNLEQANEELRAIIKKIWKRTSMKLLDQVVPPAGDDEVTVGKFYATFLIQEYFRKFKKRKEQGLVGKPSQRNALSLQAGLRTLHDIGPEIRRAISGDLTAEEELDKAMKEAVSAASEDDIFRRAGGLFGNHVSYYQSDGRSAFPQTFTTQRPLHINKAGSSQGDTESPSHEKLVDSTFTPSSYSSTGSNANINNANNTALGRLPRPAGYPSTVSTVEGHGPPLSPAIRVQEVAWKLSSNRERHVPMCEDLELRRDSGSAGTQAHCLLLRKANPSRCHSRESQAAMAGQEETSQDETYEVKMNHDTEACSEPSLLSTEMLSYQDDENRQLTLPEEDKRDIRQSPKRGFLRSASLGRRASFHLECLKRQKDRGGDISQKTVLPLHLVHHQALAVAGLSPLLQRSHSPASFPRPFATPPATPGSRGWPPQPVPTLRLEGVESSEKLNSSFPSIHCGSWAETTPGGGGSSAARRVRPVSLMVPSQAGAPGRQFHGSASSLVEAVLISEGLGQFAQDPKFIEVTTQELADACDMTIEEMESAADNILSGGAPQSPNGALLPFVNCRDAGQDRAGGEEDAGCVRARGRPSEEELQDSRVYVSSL
Chain of CAV1.2 (Q08289 whole entry partner): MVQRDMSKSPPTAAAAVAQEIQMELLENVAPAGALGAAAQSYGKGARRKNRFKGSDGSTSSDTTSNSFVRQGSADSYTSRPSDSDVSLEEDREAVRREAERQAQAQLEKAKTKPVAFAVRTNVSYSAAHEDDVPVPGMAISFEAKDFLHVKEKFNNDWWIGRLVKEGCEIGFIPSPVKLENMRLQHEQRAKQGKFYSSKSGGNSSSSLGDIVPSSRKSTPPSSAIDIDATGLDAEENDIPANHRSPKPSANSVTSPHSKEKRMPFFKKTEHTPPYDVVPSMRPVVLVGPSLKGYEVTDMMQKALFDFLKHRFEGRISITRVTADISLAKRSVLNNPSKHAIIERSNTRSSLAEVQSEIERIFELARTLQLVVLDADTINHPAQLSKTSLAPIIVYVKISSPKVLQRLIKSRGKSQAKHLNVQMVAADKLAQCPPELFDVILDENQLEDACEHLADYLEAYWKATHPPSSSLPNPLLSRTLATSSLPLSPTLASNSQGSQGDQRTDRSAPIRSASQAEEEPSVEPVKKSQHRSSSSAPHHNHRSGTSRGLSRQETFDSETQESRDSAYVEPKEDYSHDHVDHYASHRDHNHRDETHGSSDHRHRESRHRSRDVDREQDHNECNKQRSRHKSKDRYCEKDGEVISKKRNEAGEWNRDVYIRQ
Chain of CAV1.2 (P54289 25-956 partner limits assumed): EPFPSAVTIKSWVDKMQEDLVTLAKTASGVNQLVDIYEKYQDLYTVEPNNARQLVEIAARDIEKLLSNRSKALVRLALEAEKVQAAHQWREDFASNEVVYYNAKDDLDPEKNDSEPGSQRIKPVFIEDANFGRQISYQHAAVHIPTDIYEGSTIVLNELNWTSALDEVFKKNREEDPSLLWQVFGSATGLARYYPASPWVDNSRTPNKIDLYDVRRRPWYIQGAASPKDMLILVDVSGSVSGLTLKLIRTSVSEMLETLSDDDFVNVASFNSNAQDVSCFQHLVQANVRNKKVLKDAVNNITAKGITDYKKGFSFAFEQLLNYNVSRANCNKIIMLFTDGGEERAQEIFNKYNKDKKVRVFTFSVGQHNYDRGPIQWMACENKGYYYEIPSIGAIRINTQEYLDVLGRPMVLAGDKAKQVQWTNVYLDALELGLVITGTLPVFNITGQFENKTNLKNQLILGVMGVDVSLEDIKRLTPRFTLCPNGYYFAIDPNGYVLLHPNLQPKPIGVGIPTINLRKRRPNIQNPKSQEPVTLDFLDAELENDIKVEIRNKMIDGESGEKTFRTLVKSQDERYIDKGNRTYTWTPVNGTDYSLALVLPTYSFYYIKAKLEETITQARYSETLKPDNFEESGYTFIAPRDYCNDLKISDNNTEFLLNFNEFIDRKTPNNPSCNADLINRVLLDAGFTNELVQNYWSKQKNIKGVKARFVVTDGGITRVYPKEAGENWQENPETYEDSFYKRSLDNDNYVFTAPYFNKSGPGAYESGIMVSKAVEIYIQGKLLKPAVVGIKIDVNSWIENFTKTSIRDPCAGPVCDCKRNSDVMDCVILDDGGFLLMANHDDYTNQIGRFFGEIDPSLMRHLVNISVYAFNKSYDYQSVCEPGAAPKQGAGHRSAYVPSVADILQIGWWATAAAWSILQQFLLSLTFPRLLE
Chain of CAV1.2 (P54289 957-1103 partner limits assumed): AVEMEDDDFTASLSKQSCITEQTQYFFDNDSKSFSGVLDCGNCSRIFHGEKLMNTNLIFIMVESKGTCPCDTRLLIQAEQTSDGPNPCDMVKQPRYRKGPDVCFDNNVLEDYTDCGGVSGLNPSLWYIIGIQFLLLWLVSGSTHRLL

SMILES	IC50 (CAV1.2) [µM]	IC50 (AVPR1A; Calcium Flux AVPR1A Antagonist) [µM]	EC50 (EDNRA; Calcium Flux EDNRA Agonist) [µM]	EC50 (nAChR (a4/b2)) [µM]	Emax (nAChR (a4/b2)) [%]	effect on EKP-induced elevated PSD (in words) ([1]; 2 μM)	efficacy against EKP-induced epileptiform discharges 2 μM ([1]; 2 μM) [%]	effect on EKP-induced elevated PSD (in words) ([1]; 10 μM)	efficacy against EKP-induced epileptiform discharges 10 μM ([1]; 10 μM) [%]	IC50 (CHRM1) [µM]	Emax (CHRM1) [%]	EC50 (CCKAR; Calcium Flux CCKAR Agonist) [µM]	further results
CC(C)(C)c1ccc(C#CC(O)c2ccccc2)cc1 (racemic) [Compound 3.3, rac-3-(4-(tert-butyl)phenyl)-1-phenylprop-2-yn-1-ol]	> 10	> 10	> 10	> 10	0	remained effective	54	significant decrease	82	> 10	0	> 10	Emax at 30 min (CAV1.2; Ion Channel CAV1.2 Blocker, read-out: Max response): 7.2%; Emax (AVPR1A): 0%; Emax (EDNRA): 0%; Emax (CCKAR): 0.2%; IC50 (KvLQT1/minK): > 10 µM; Emax (KvLQT1/minK): 47.5%
Clc1cccc(C#Cc2n[nH]c3ncccc23)c1 [Compound 10.1, 3-((3-chlorophenyl)ethynyl)-1H-pyrazolo[3,4-b]pyridine]	> 10	> 10	> 10	> 10	0	did not	−30	significant decrease	77	> 10	5.5	> 10	Emax at 30 min (CAV1.2): 0%; Emax (AVPR1A; Calcium Flux AVPR1A Antagonist): 0%; Emax (EDNRA; Calcium Flux EDNRA Agonist): 1.8%; Emax (CCKAR; Calcium Flux CCKAR Agonist): 0.3%; Emax (KvLQT1/minK; Ion Channel KvLQT1/minK Blocker): 0%; IC50 (KvLQT1/minK; Ion Channel KvLQT1/minK Blocker, read-out: RC50, result type IC50): > 10 µM
